# According to patent US20260224732A1, “BIOPOLYMER PROTECTED OLIGONUCLEOTIDES FOR DRUG DELIVERY” (THE ROYAL INSTITUTION FOR THE ADVANCEMENT OF LEARNING / …, priority 2023, published 2026):
# Read-outs that look alike come from different tables or passages of the source.
# B1: dA30C4v2: hydrogel strands: 30 adenine followed by 20 complementary base pairs as overhang; strand1 and strand2, SEQ ID NO 33, 34 (nucleic acid)
# chain 1: AAAAAAAAAAAAAAAAAAAAAAAAAAAAAACCCCATTCTACTTGAGAGAGCGAC
# chain 2: AAAAAAAAAAAAAAAAAAAAAAAAAAAAAACCCCGTCGCTCTCTCAAGTAGAAT
# modifications: DNA, backbone not given here; hydrogel-forming strands with complementary overhangs
# B2: dA30-dsDNA13: half strand1 and half strand2, SEQ ID NO 31 and 32, double-stranded DNA crosslink (nucleic acid)
# chain 1: AAAAAAAAAAAAAAAAAAAAAAAAAAAAAACTAGAAGTGTCCAGTTA
# chain 2: AAAAAAAAAAAAAAAAAAAAAAAAAAAAAATTACTAACTGGACACTT
# modifications: DNA, backbone not given here; crosslinked double-stranded DNA
# Tests used:
# Epithelial cells = test: Cellular viability with CA and CA-R mixes; assay type: cell-based; settings: after 5 days, pH 6; CA 20 mM alone or CA 20 mM plus the named CA-R (CAC2NH2 30 mM, CAC6NH2 12 mM)
# Excerpt: Magnification of 10×, scale bar=100 μm, dapi in blue and factin in red.
# Cellular viability. To be applicable in biological context, the toxicity of the CA and the combined CA-R mixes were verified. Epithelial cells were cultivated in media supplemented with various CA-R mixes and acidified at pH 6. Both the cellular viability and morphology was studied over a 5 day period.
# [1] = assay type: in vitro ADME, bovine; settings: pH 6
# Procedure: (§1) The sample then was stored at −20° C.
# (§2) Results. The PAGE analyses were performed for both CA concentrations, and imaged side-by-side (FIG. 2). The strongest resulting band intensities were normalised to the t=0 data-point, plotted as a function of time (See Supplemental), and then fitted to the first-order kinetics equations (Equations 1, 2, and FIG. 3). The rate constants were calculated from these graphs (using Equation 4), and tabulated according to strand and CA concentration (Table 2).
# (§3) Equation 4. The Equation 2, written as relationship between the band intensities (I at some t, and at t=0), and the rate constant, k.
# [2] = Rheological measurements of dA/CA hydrogels; assay type: physicochemical; settings: for G′ window: dA50 420 μM, dA30C8 2 mM, CA 60 mM, CAC2NH2 90 mM; for storage modulus (G′): same wt % (dA15 1400 μM, dA30 700 μM, dA50 420 μM), Mag buffer, 25° C.
# Procedure: Hydrogel Assembly and Rheology: Unless otherwise stated, the preparation of gels follows this procedure. The appropriate amounts of strands are evaporated from their stocks on a speedvaccuum in a 300 μL Eppendorf. For the dA30-dsDNAn hydrogels, the concentration is half strand1 and half strand2. Once dry, 50 μL or 100 μL of a buffer containing the desired concentration of CA and/or CAC2NH2 is added to the Eppendorf. […] Both buffers give similar gels rheologically (FIG. 40). For concentrations of CA exceeding 20 mM or CAC2NH2 30 mM, the excess CA-R is dried with the strands from a water/CA 20 mM solution adjusted to pH 6. The dried DNA is mixed and sonicated to help it dissolve, forming instantly a cloudy filamentous gel. To homogenize the gels, the Eppendorf is heated to 85° C. for 5 minutes a Bio-Rad T100TM thermocycler, then cooled down to 20° C. and kept at that temperature overnight, unless otherwise noted. They are measured the next day. It is important to properly homogenize the gels, mixing them at high temp if needed, and to quickly cool them, or they may form more localized aggregates with varying rheology. Due to the high melting temperature of dA30C8 2 mM, CA 60 mM, CAC2NH2 90 mM, the gel was prepared by heating at 100° C. for 20 min (sealed to prevent water escaping), before being brought to 20° C. Clear monophasic gels are formed from this process.
# Rheological measurements: Rheological properties were measured using stress-controlled rheometer (MCR 302, Anton Paar) using a 15 mm diameter cone plate at 0.2 mm (50 μL gels) or 0.5 mm (100 μL gels) gap distance. Samples were taken directly from the Eppendorf in which they were formed by prying it open with a razor blade and placed under the cone plate. The temperature was maintained at 25° C. for all measurements using a Peltier temperature control unit unless otherwise noted. Due to the small thickness of the samples, no temperature gradients are expected. To avoid drying, a solvent trap was used in all the measurements. Amplitude sweeps were first conducted to assess the linear viscoelastic range of the samples by slowly increasing the strain from 0.01% to 100%. […] Oscillatory frequency sweep tests were measured between 0.1 Hz and 100 Hz at 0.1% strain. Strain-cycle experiment was done by cycling the gel between 0.1% and 100% strains at 1 Hz. To understand the shear-thinning behavior of the samples, the viscosity was measured at increasing strain rate ranging from (0.1-100 Hz).
# • A) Strand complement. Two 50 μL dA30C4 700 μM hydrogel in Mag buffer with CA 20 mM samples were prepared, as well as a 10 μL sample of dG4T30 3 mM (1.5 eq.) in the same buffer and CA concentration. A sample of dA30C4 hydrogel was measured independently. The dG4T30 sample was added to the second dA30C4 sample and vortexed in its Eppendorf for 2 minutes before being measured. • B) Melamine. A 50 μL hydrogel composed of dA30-dsDNA13 700 μM and CA 20 mM in Mag buffer was measured in the rheometer. The plate of the rheometer was lifted and 50 μL of solution of 20 mM melamine in Mag buffer at pH6 was added to it. Instant white precipitate formed and was encouraged by gently mixing with a spatula for 30s before the resulting liquid with solid precipitate was measured rheologically. • C) pH. A volume of 180 μL of dA30C4v2 700 μM CA 20 mM hydrogel in Mag buffer was prepared. The initial pH was measured at 5.71 with a surface pH meter (Mettler Toledo). An approximate volume of 50 μL was separated and measured rheologically. To the remaining 130 μL, 2.70 μL of NaOH 5.04M was added and stirred through vortexing. The resulting pH of the liquid was measured at 7.91. 50 μL of it were measured rheologically. To the remaining 80 μL, 1.5 μL of HCl 5.04M was added by aliquot and mixed through vortexing, forming a gel with a pH of 5.66 after 2 minutes. To note that in general, it is important to mix vigorously with the addition of the acid, or localized gels will form rather than a homogeneous one. […]
# [3] = Serum stability assay in L15 media with FBS, denaturing PAGE band intensity; assay type: in vitro ADME, bovine; settings: pH 6
# Procedure: as §1, §2
# Equation 1. First-order rate law for the variation of the concentration of a substance (in this case, nucleic acid, “NA”) with time, where [NA]t is the concentration of NA at a given time t, and [NA]0 is the initial concentration.
# as §3
Molecule,k 0 mM [CA] [1],k 20 mM [CA] [1],k 0 mM [CA] [3],k 20 mM [CA] [3],further results
NCCCCCCn1c(=O)[nH]c(=O)[nH]c1=O [CAC6NH2],–,–,–,–,viability (Epithelial cells): 43±2%
"dA30C8: DNA strand, 30 adenines then CCCCCCCC, SEQ ID NO 8 (DNA AAAAAAAAAAAAAAAAAAAAAAAAAAAAAACCCCCCCC; DNA, backbone not given here)",(2.29 ± 0.5) × 10^−2 h^−1,(4.87 ± 0.7) × 10^−3 h^−1,–,–,"moduli at 37° C. ([2]; 1.7 wt % gel, room temperature to 37° C.): virtually unchanged; G′ ([2]; 1.7 wt %, mixture of CA and CAC2NH2): ~10^4 Pa; G′ ([2]; 4.7 wt % (CA-R included), 1 Hz): 8±1×10^4 Pa; G′ ([2]; 4.7 wt % (CA-R included), 10 Hz): 1±0.1×10^5 Pa; storage modulus at 85° C. ([2]; 4.7 wt % gel, 85° C.): above 10^4 Pa; G′ window ([2]; CA 20 mM): ~10^5 Pa; gel state at 100° C. ([2]; qualitatively observed): staying a gel"
"dA30C4-v2′: DNA strand, 30 adenines then CCCCGTCGCTCTCTCAAGTAGAAT, SEQ ID NO 10 (DNA AAAAAAAAAAAAAAAAAAAAAAAAAAAAAACCCCGTCGCTCTCTCAAGTAGAAT; DNA, backbone not given here)",(1.33 ± 0.1) × 10^−2 h^−1,(3.46 ± 0.5) × 10^−3 h^−1,–,–,–
"rA15R7: RNA strand GCTACTGAAAAAAAAAAAAAAA, SEQ ID NO 2 in Table 1; Table 5 swaps the name with R7rA15 (GCUACUGAAAAAAAAAAAAAAA; chemistry not fully specified)",(1.25 ± 0.2) × 10^−1 h^−1,(2.25 ± 0.2) × 10^−3 h^−1,(4.67) × 10^−2 h^−1,(4.16) × 10^−3 h^−1,–
"rA15: RNA strand AAAAAAAAAAAAAAA, SEQ ID NO 1 (RNA, backbone not given here)",(2.43 ± 0.3) × 10^−2 h^−1,(2.42 ± 0.2) × 10^−3 h^−1,(6.70) × 10^−2 h^−1,(1.07) × 10^−2 h^−1,–
"dA15: DNA strand of 15 adenines, SEQ ID NO 5 (DNA AAAAAAAAAAAAAAA; DNA, backbone not given here)",–,–,–,–,"storage modulus (G′) ([2]; 1 Hz, CA 20 mM): 1.3±0.8×10^1 Pa; storage modulus ([2]; pure dA15 hydrogel with CA): ~10^1 Pa; storage modulus ([2]; pure dA15 hydrogel with CAC2NH2 instead of CA, 0.7 wt % (including CAC2NH2)): ~10^3 Pa"
"dA50: DNA strand of 50 adenines, SEQ ID NO 28 (DNA AAAAAAAAAAAAAAAAAAAAAAAAAAAAAAAAAAAAAAAAAAAAAAAAAA; DNA, backbone not given here)",–,–,–,–,"storage modulus (G′) ([2]; 1 Hz, CA 20 mM): 4±2×10^1 Pa; G′ window ([2]; CA 20 mM): ~10^1 Pa"
"dA30C4: DNA strand, 30 adenines then CCCC, SEQ ID NO 9 (DNA AAAAAAAAAAAAAAAAAAAAAAAAAAAAAACCCC; DNA, backbone not given here)",–,–,(5.83) × 10^−3 h^−1,(−2.08) × 10^−3 * h^−1,"G′ and G″ after addition of the complementary strand dG4T30 ([2]; dA30C4 700 μM, CA 20 mM, dG4T30 1.5 eq.): large loss of G′ and G″"
NCCn1c(=O)[nH]c(=O)[nH]c1=O [CAC2NH2],–,–,–,–,viability (Epithelial cells): 82±5%
"Control random: DNA GATGAGGTACCCAGAAGCCGAACTGGGCCAGACAACCCGGCGCTAAC, SEQ ID NO 11, no polyA (DNA, backbone not given here) [reference compound]",(3.86 ± 0.2) × 10^−2 h^−1,(3.48 ± 0.8) × 10^−2 h^−1,–,–,–
"R7rA15: RNA strand AAAAAAAAAAAAAAAGTCATCG, SEQ ID NO 3 in Table 1; Table 5 swaps the name with rA15R7 (AAAAAAAAAAAAAAAGUCAUCG; chemistry not fully specified) [Strand R7rA15]",(2.80 ± 0.7) × 10^−2 h^−1,(7.47 ± 0.4) × 10^−3 h^−1,(3.73) × 10^−2 h^−1,(2.59) × 10^−3 h^−1,–
B1,–,–,–,–,"storage modulus G′ (1 Hz) ([2]; 700 μM strands (1.4 wt % for dA30C4v2), CA 20 mM): 4±0.8×10^3 Pa; G′ ([2]; 4 wt % (CA included)): 3×10^4 Pa"
B2,–,–,–,–,"yield point of the gel (G″ overtakes G′) ([2]; 700 μM): Around 1 % shear strain; G′ and G″ after adding stoichiometric amount of melamine ([2]; 700 μM, CA 20 mM, melamine 20 mM): greatly decreases G′ and G″; self-healing, return to initial modulus ([2]; cycling low shear (0.1%) and high shear (100%)): under 1 min"
